Results from patent publication US20040151679A1, “Dissolving agent for melanin” (priority 2001, published 2004).

Assay: Rate of dissolution of model melanin and color of its solutions
Format: physicochemical, Aspergillus niger
Settings: for Time of dissolution: model melanin; for Color of the solution: solution of model melanin

Row | Structure (SMILES) | pH of the solution | Time of dissolution [min] | Color of the solution | Time of dissolution (not dissolved within this time) | Time of dissolution (1 mg/ml in PFOC) [min]
1 | [Na+].[OH-] [0.01 N sodium hydroxide, sodium hydroxide] | 9.5 | 6 | Yellow- | – | –
2 | CC(=O)O [0.01 N solution of acetic acid, acetic acid] | 3.5 | – | – | Not dissolved in 5 hours | –
3 | N [0.01% ammonia, ammonia] | 10.5 | 5 | -”- | – | –
4 | FC(F)(Br)C(F)(F)Br [1,2-dibromtetrafluoroethane] | 7 | 5 | Colorless | – | –
5 | OO [4% solution of HP, hydrogen peroxide] | 3.5 | – | – | Not dissolved in 5 hours | –
6 | NCCO [Monoethanolamine] | 10 | 2 | -”- | – | –
7 | FN(F)C1(C(F)(F)F)C(F)(F)C(F)(F)C(F)(F)C(F)(C(F)(F)F)C1(F)F (stereo not drawn) [Perfluoro-1,3-dimethyl-cyclohexylamine] | 7 | 3 | Lemon | – | –
8 | FC1(F)C(F)(F)C(F)(F)C2(F)C(F)(F)C(F)(F)C(F)(F)C(F)(F)C2(F)C1(F)F (stereo not drawn) [Perfluorodecalin (PFD), perfluorodecalin] | 7 | – | Colorless | – | 0.5
9 | FC(F)(F)C(F)(F)C(F)(F)N(C(F)(F)C(F)(F)C(F)(F)F)C(F)(F)C(F)(F)C(F)(F)F [Tri(perfluoropropyl)amine (TPA), tri(perfluoropropyl)amine] | 7 | – | Colorless | – | 0.5
10 | CCN(CC)CC [Triethylamine] | 8 | – | – | Not dissolved in 5 hours | –
